Experimental data reported in patent US20220110953A1, “METHODS AND COMPOSITIONS FOR TREATING HUMAN PAPILLOMAVIRUS (HPV)-INDUCED CANCERS” (The Board of Regents of the University of Oklahoma, priority 2020, published 2022).

Assays:
[1] = system: HPV 16+ and HPV 18+ human cervical cancer cell lines; experiment: Auranofin cell growth in human cervical cancer cell lines; format: cell-based; conditions: FIG. 6
[2] = system: SiHa cervical cancer xenografts (HPV 16+); experiment: SiHa tumor xenograft model; format: in vivo, mice; conditions: 10 mg/kg/day i.p., vs placebo
Experimental: (§1) The animal study was conducted in accordance with a standard animal protocol approved by the University of Oklahoma Health Sciences Center Institutional Animal Care and Use Committee (IACUC Protocol #19-009-CHI). […] Auranofin (10 mg/kg/day) or placebo (2% DMSO, 10% ethanol and 5% polyethylene glycol 400) were given daily for 16 days, through intraperitoneal injection. Mice were weighed once per week and animal health was monitored daily. At the end of the study, all mice were euthanized by CO2 inhalation followed by cardiac puncture and total blood collection. Tumors were collected at necropsy and a portion of each tumor from each animal was fixed in paraformaldehyde and embedded in paraffin, while another portion was snap-frozen in liquid nitrogen.
(§2) The tumor volume and body weight data were determined to be not normally distributed, and the final tumor weight data was determined to be normally distributed using the Shapiro-Wilk test. Tumor volume and body weight were compared between treatment groups using the Wilcoxon matched-pairs signed rank test. A two-way ANOVA with multiple comparisons was used to evaluate the interaction between time and treatment. An unpaired t-test was used to compare the final tumor weights between the two treatment groups. The p values <0.05 were considered statistically significant. Statistical analysis was performed using Prism 8.0 (GraphPad).

[3] = Body weight and gross toxicity in the SiHa xenograft study; format: in vivo, mice; conditions: 10 mg/kg/day i.p., 16 days
Experimental: as §1, §2

HeLa (HPV 18+) cells = experiment: Effect of IMD 0354 on growth of HeLa cells (cell count after 48h); format: cell-based, human
Experimental: (§3) To examine the effect of IMD 0354 on the growth of HaCat (HPV^−), HeLa (HPV 18^+), CasKi and SiHa (both HPV 16^+), the cells were plated out and allowed to adhere overnight. Next day their culture medium was replaced and different concentrations of IMD 0354 (final concentrations 250, 500, 750, 1000, 1250 nM, using DMSO to equalize input volumes and as negative control) were added to the plates. Cells were counted 48h later.
(§4) IKKβ is a serine/threonine kinase that is highly conserved between flies and humans. It regulates the innate immune pathway by activating NF-κB, which in turn activates the expression of antimicrobial peptides to fight against pathogens. To determine whether IKKβ also has a functional link to E6+UBE3A in human cells, we assessed the effect of the commercial IKKβ inhibitor IMD 0354 on the growth of HaCat (HPV^−), HeLa (HPV 18^+), CasKi (HPV 16^+), and SiHa (HPV 16^+) cells. Different concentrations of the inhibitor were tested ranging from 250, 500, 750, 1000, to 1250 nM.

HaCat (HPV−) cells = experiment: Effect of IMD 0354 on growth of HaCat cells (cell count after 48h); format: cell-based, human; conditions: 250-1250 nM
Experimental: as §3, §4

SiHa (HPV 16+) cells = experiment: Effect of IMD 0354 on growth of SiHa cells (cell count after 48h); format: cell-based, human; conditions: 250-1250 nM
Experimental: as §3, §4

HPV 18 E6 = experiment: Western blot for phosphorylated E6 in HeLa cells treated with IKKβ inhibitor; format: cell-based, human
Experimental: HPV-18-positive HeLa cells were seeded on 6 cm dishes and allowed to attach overnight. Fresh medium was then added, containing either 0, 100 nM or 500 nM […] inhibitor (in DMSO). After 5 hours the cells were harvested in 2×SDS-PAGE gel loading buffer, run on SDS-PAGE, and analyzed by Western Blot. The membrane was probed with antibody specific for phosphorylated E6, as described previously (Boon and Banks 2012, DOI: 10.1128/JVI.02074-12). Following incubation with primary antibody, the appropriate horseradish peroxidase (HRP)-conjugated secondary antibodies (Dako) were used, followed by enhanced chemiluminescence (ECL) detection according to the manufacturer's instructions.
To assess whether phosphorylation-mediated regulation of E6 plays a role in suppression of Magi degradation, we treated cells expressing HPV 18 E6 with the IKKβ inhibitor […] (at 100 and 500 nM) and compared with untreated cells for E6 phosphorylation. Western blot analysis was performed using an antibody to detect phosphorylated E6.

| SMILES | activity against cervical cancer cell lines (cell growth) [1] | tumor growth (tumor volume over time) ([2]; 16 days, Wilcoxon p=0.0011) | tumor volume after 16 days of treatment ([2]; two-way ANOVA multiple comparisons p=0.0016) | gross toxicity to the animals [3] | body weights ([3]; vs placebo, any time point, p>0.05) | number of surviving cells relative to the initial number of cells (HeLa (HPV 18+) cells; 250 nM) | number of surviving cells relative to the initial number of cells (HeLa (HPV 18+) cells; 1250 nM) | effect on cell growth (HeLa (HPV 18+) cells; 250-1250 nM) | effect on cell growth (HaCat (HPV−) cells) | effect on cell growth (SiHa (HPV 16+) cells) | E6 phosphorylation (Western blot) (HPV 18 E6; HeLa cell extracts, 100 nM, 5 hours) | E6 phosphorylation (Western blot) (HPV 18 E6; HeLa cell extracts, 500 nM, 5 hours) | E6 phosphorylation (Western blot) (HPV 18 E6; cells expressing HPV 18 E6, at 100 and 500 nM, compared with untreated cells) |
| --- | --- | --- | --- | --- | --- | --- | --- | --- | --- | --- | --- | --- | --- |
| CC(=O)OC[C@H]1O[C@@H]([S-])[C@H](OC(C)=O)[C@@H](OC(C)=O)[C@@H]1OC(C)=O.CCP(CC)CC.[Au+] [Auranofin] | active | significant reduction in tumor growth | significant reduction in tumor volume | did not cause gross toxicity | no significant differences |  |  |  |  |  |  |  |  |
| O=C(Nc1cc(C(F)(F)F)cc(C(F)(F)F)c1)c1cc(Cl)ccc1O [IMD 0354] |  |  |  |  |  | 40% | 10% | most strongly affected | minor effect | significant | lack of E6 phosphorylation | results in phosphorylation of E6 | extensive phosphorylation of E6 |
